Measured values reported in patent publication US9211305B2, “Pharmaceutical compositions with glycosaminoglycans and use thereof in the treatment of chronic ulcers” (LABORATORIOS FARMACEUTICOS ROVI S.A., priority 2008, dated 2015).
Where “and” joins values, the source holds several entries; their conditions need not be identical. Equal values may be shown once. Entries after “also recorded” stand apart in the source; their conditions may differ.

What was measured:
[1] = system: diabetic wistar rat; assay: Example 3: percentage of ulcer healing in diabetic rats, SC route; format: in vivo; details: 0.22 mg/rat SC, one rat
Description: To perform the present embodiment, doses of 45 mg/kg of streptozocin (STZ) were administered by intramuscular route to make a batch of 10 rats diabetic (Andrades Ja et al. Engineering, expression, and renaturation of a collagen-targeted human bFGF fusion protein. Growth Factors. 2001; 18(4):261-75).
(§1) Male wistar rats with an average weight of 250 g per rat were used, to which a dose of 11.25 mg STZ per rat was administered by means of the intramuscular administration of 100 μL in the left paw of each rat.
(§2) Diabetes was induced in 6 of all the rats and 4 of them were left as a non-diabetic control, to test the result of the healing of chronic ulcers not caused by diabetes.
Sweetened water (350 mg/dL) was administered to the rats for three days and glucose measurements were performed with a glucometer every day to verify that the rats were indeed diabetized. For this reason, before the administration and at time 4 days after the administration of streptozocin, a drop of blood was extracted from the rat tail vein for the subsequent quantification of glycemia and see whether they were diabetic before starting the ulceration assay.
Once the rats are ready, 2 ulcers with a diameter of 1 cm each were made on them using a scalpel. […]

[2] = system: C57BL/KsJ-db/db diabetic mouse; assay: Example 4: wound healing in genetically diabetic mouse, topical route; format: in vivo; details: topical 1000 IU/kg; for histopathological Grade / histopathological Score: 14 days, sacrifice day 15
Description: In this case, topical formulations were prepared for the direct administration on the ulcers, the carriers of which formulations are formed by Carbopol, Phenonip®, Span 80, Glycerol and water.
The ulceration and measurement of the area were performed as detailed in the subcutaneous administration assays. On the day after the incision and for a total of 14 days, the assigned treatments, 0.15 ml/animal by topical route in the back of the animal, above the wound, were administered to the animals.
The follow-up of the animals was performed up to a period of 14 days (average time necessary for the healing of the wounds in this animal model). The assessment was performed by means of digital photography of the wound and subsequent image analysis.
The animals were sacrificed on the day after the last administration (day 15) and the area where the wound was made was extracted. The rear portion of the area containing the wound was stored in formol for its histological processing (hematoxylin-eosin staining).
The results were based on the score given by the method of Greenhalgh et al. (1990). Each block was given a histological score from 1 to 15, where 1 means uncured wound and 15 means completely epithelialized wound. The score is based on the degree of cell invasion, the formation of granulation tissue, vascularization and epithelialization: […]

[3] = system: factor Xa; assay: Anti-factor Xa activity; format: biochemical
[4] = system: diabetic wistar rat; assay: Example 1: ulcer area reduction in streptozocin-diabetized rats, subcutaneous route; format: in vivo
Description: To perform the present example, doses of 45 mg/kg of streptozocin (STZ) were administered by intramuscular route to make a batch of 8 rats diabetic (Andrades Ja et al. Engineering, expression, and renaturation of a collagen-targeted human bFGF fusion protein. Growth Factors. 2001; 18(4):261-75).
as §1
Sweetened water (350 mg/dL) was administered to all the rats for three days and glucose measurements were performed with a glucometer every day to verify that the rats were indeed diabetized. For this reason, before the administration and at time 4 days after the administration of streptozocin, a drop of blood was extracted from the rat tail vein for the subsequent quantification of glycemia and to see whether they were diabetic before starting the ulceration assay.
Once the rats were diabetized, 4 ulcers with a diameter of 1 cm each were made on them using a scalpel. An anesthesia/analgesia protocol with Ketamine/xylazine was followed according to the recommendations of the book: “Handbook of laboratory animal management and welfare”:
The ulcers were treated with water and cleaned for 9 days after the ulceration.
The administrations of bemiparin were performed by means of a bemiparin solution by subcutaneous route (100 μL) for the treatment of the ulcers.
The diameter of the ulcer was quantified by means of tracing the ulcer onto a transparency to see the progress of the healing.

[5] = system: non-diabetic rats; assay: Example 3: percentage of ulcer healing in non-diabetic rats, SC route; format: in vivo, Wistar rat; details: for percentage of healing of day 9 with respect to day 1, Average: Group 1, non-diabetic, 217 IU/rat SC
Description: as §2
Once the rats are ready, 2 ulcers with a diameter of 1 cm each were made on them using a scalpel. An anesthesia/analgesia protocol with ketamine/xylazine was followed according to the recommendations of the book: “Handbook of laboratory animal management and welfare”:
The ulcers were treated with water and cleaned for 9 days after the ulceration. A corresponding solution was administered to each group by SC route (100 μL) for the treatment of the ulcers. The diameter of the ulcer was quantified by means of tracing the ulcer onto a transparency to see the progress of the healing.

[6] = system: C57BL/KS.Cg-m Lepr^db+/+m mouse; assay: Example 5: wound healing in non-diabetic mouse, subcutaneous route; format: in vivo
Description: The C57BL/KS.Cg-m Lepr^db+/+m mouse is the non-diabetic analog of the mouse used in the previous example.
On the first day of the assay, the animals were anesthetized (ketamine+xylazine, 100+10 mg/kg, i.m.). The back of the animal was shaved, the area was cleaned with disinfectant and the location of the wound was marked by means of a template to make its position the same in all the animals.
The wound was made by means of a circular incision with a diameter of approximately 1.5 cm, the skin of the mid-dorsal area being removed. A semipermeable dressing was subsequently placed on the wound. 1 mL/animal of physiological serum was administered by i.p. route after the intervention.
The wound area was calculated as the percentage of reduction thereof to evaluate the degree of curing thereof, by means of the standardized formula: […]
The measurement performed immediately after the intervention or incision was used as the baseline area. On the following day and for a total of 14 days, the assigned treatments were administered to the animals.
On the following day and for a total of 14 days, 10 ml/kg were administered to the animals by subcutaneous route in the back of the animal, avoiding the area of the wound.
The follow-up of the animals was performed up to a period of 21 days. The assessment was performed by means of digital photography of the wound and subsequent image analysis.
The animals were sacrificed on day 21 of the study and the area of the skin where the wound was caused was stored in formol to perform a histopathological evaluation (hematoxylin-eosin staining).
Each section was given a histological score in the grade 1 to grade V range, where I means uncured wound and V means completely epithelialized wound. The score is based on the degree of cell invasion, the formation of granulation tissue, vascularization and epithelialization.

[7] = in vivo; cited from earlier work
[8] = subcutaneous 14 days, sacrifice day 21, doses as in the 23rd table

Compound | percentage of healing of day 9 with respect to day 1, Average [1] [%] | percentage of healing of day 9 with respect to day 1 ([1]; single ulcers) | histopathological Grade [2] | histopathological Score [2] | anti-Xa/anti-IIa ratio [3] | percentage of area reduction of day 9 with respect to day 1, Average ([4]; 108 IU rat, subcutaneous, ulcer E excluded) [%] | macroscopic healing process ([4]; 217 IU rat compared with 108 IU rat) | percentage of area reduction of day 9 with respect to day 1, Average ([4]; 217 IU rat, subcutaneous) [%] | percentage of area reduction of day 9 with respect to day 1 ([4]; single ulcers, 217 IU rat, subcutaneous) | macroscopic healing process ([5]; Group 1 (217 IU/rat) compared with the rest of groups) | percentage of healing of day 9 with respect to day 1, Average [5] [%] | percentage of healing of day 9 with respect to day 1, Average ([5]; listed as bemiparin) [%] | area reduction ([2]; end of the treatment (14 days)) | healing rate with respect to the control ([6]; subcutaneous 1000 IU Xa/kg) | histopathological Grade [6, 8] | histopathological Score [6, 8] | Plasma Half-Life [7] [h] | Plasma Half-Life Range [7] [h]
CO[C@H]1O[C@H](COS(=O)(=O)O)[C@@H](O[C@@H]2O[C@@H](C(=O)O)[C@@H](O[C@H]3O[C@H](COS(=O)(=O)O)[C@@H](O[C@@H]4O[C@H](C(=O)O)[C@@H](O[C@H]5O[C@H](COS(=O)(=O)O)[C@@H](O)[C@H](O)[C@H]5NS(=O)(=O)O)[C@H](O)[C@H]4O)[C@H](OS(=O)(=O)O)[C@H]3NS(=O)(=O)O)[C@H](O)[C@H]2OS(=O)(=O)O)[C@H](O)[C@H]1NS(=O)(=O)O [Fondaparinux] | 50.22 | A 50.99%; also recorded: B 49.55% | III (7-9 Moderately thick granulation tissue. It can vary from being dominated by inflammatory cells to greater presence of fibroblasts and collagen deposition, extensive neovascularization, minimum to moderate epithelial migration.) | 8.6 |  |  |  |  |  |  |  |  |  |  |  |  |  | 
Bemiparin |  |  | III (7-9 Moderately thick granulation tissue. It can vary from being dominated by inflammatory cells to greater presence of fibroblasts and collagen deposition, extensive neovascularization, minimum to moderate epithelial migration.) | 8.7 | greater than 8 | 24.39 ± 7.47 | macroscopically much better | 27.35 ± 7.25 | 26.2% and 20.14% and 25.64% and 37.43% | macroscopically much better | 71.82 | 71.82 | greater than 60% | does not improve the healing rate | III (7-9 Moderately thick granulation tissue. It can vary from being dominated by inflammatory cells to greater presence of fibroblasts and collagen deposition, extensive neovascularization, minimum to moderate epithelial migration.) | 8 | 5.3 | 5.2 to 5.4
